Among the data in paper PMC8213057, “Targeting ALK2: An Open Science Approach to Developing Therapeutics for the Treatment of Diffuse Intrinsic Pontine Glioma” (Journal of Medicinal Chemistry, 2020) are remaining activity values, retold here.

The structures appear in SMILES notation.

Among the targets are EPHA2 (Homo sapiens, UniProt P29317); FGR (Homo sapiens, UniProt P09769); IR (Homo sapiens, UniProt P06213).
Common to all, as to experiment: biochemical
Common to all, as to conditions: read-out: % enzyme activity, 1 μM; Run 1, Run 2

The target of a further assay is T1, LKB1 (Homo sapiens, UniProt Q15831).
T1 sequence (Q15831 1-433): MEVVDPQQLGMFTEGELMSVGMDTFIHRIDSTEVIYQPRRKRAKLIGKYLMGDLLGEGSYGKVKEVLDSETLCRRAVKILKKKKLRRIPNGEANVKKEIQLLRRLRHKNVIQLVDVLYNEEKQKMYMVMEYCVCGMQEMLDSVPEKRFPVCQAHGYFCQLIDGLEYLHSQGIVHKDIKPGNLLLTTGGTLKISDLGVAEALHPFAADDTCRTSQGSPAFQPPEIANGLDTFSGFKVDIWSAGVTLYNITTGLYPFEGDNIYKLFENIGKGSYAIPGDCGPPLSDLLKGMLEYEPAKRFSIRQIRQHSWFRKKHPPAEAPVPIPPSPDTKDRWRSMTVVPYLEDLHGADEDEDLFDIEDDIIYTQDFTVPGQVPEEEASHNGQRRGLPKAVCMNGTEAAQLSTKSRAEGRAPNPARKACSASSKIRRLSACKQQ
T1 sequence (Q7RTN6 1-431 partner): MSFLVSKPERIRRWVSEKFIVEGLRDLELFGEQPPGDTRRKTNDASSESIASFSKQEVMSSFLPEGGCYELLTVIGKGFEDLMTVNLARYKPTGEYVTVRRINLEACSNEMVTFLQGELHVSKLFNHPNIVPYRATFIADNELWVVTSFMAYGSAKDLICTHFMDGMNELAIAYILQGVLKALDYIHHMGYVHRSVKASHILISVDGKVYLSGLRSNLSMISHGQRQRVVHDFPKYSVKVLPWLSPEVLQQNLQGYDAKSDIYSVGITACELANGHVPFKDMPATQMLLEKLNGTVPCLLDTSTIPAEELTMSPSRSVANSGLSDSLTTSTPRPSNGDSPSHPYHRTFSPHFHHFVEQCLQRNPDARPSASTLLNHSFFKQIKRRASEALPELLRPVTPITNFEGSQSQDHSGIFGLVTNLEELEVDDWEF
T1 sequence (Q9Y376 1-341 partner): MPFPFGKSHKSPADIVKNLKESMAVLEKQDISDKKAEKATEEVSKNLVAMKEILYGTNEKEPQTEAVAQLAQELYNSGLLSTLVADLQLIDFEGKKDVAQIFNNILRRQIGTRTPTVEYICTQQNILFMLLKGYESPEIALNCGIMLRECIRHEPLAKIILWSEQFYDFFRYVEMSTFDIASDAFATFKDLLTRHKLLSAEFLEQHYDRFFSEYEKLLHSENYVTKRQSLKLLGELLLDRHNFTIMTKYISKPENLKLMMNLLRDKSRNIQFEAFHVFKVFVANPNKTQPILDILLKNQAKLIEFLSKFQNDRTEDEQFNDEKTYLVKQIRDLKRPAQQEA

The target in another assay is T2, PKCepsilon (Homo sapiens, UniProt Q02156).
T2 sequence (Q02156 1-737): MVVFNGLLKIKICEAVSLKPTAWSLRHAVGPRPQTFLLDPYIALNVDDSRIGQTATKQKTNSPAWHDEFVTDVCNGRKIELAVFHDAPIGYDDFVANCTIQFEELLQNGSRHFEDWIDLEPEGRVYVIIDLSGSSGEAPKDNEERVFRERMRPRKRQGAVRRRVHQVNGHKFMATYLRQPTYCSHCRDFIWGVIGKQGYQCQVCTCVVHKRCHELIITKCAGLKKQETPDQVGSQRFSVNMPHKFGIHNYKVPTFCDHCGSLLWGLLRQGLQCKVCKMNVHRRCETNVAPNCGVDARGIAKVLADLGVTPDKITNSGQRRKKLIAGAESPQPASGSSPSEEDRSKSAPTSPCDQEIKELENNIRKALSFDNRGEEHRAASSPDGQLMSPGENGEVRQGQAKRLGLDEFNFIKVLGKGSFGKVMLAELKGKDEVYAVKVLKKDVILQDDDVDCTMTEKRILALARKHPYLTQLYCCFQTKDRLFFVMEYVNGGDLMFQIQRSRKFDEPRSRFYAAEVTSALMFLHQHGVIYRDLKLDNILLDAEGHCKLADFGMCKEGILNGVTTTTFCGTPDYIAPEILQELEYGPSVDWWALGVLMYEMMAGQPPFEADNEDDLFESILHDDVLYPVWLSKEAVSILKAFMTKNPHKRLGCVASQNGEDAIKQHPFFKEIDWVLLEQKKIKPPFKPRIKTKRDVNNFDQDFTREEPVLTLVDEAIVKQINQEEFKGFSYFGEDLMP

The target in a further assay is T3, RIPK5 (Homo sapiens, UniProt Q6XUX3).
T3 sequence (Q6XUX3 1-929): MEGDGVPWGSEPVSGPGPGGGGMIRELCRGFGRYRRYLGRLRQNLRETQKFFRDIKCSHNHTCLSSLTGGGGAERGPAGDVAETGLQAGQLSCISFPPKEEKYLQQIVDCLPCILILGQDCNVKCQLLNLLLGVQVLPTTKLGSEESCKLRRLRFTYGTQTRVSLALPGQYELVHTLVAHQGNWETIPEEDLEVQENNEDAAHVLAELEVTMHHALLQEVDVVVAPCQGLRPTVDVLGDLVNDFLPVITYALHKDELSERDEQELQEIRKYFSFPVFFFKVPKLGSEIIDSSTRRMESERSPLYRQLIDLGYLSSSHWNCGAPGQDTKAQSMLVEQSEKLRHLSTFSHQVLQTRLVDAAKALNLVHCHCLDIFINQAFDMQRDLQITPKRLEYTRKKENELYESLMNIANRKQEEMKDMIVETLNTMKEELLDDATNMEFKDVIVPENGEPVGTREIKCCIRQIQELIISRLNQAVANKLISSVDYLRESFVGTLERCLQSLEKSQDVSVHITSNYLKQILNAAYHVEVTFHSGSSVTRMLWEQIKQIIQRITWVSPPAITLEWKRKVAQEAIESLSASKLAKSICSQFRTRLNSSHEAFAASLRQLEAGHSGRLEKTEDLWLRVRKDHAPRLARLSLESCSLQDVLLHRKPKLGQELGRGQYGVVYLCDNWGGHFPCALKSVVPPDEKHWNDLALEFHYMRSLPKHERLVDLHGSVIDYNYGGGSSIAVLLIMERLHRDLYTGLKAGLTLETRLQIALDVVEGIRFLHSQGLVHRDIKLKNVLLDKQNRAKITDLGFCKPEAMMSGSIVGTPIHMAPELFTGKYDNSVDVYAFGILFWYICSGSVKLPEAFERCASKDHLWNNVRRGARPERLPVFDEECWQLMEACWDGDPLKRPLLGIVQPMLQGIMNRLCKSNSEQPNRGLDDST

Sequence of IR (P06213 28-1382): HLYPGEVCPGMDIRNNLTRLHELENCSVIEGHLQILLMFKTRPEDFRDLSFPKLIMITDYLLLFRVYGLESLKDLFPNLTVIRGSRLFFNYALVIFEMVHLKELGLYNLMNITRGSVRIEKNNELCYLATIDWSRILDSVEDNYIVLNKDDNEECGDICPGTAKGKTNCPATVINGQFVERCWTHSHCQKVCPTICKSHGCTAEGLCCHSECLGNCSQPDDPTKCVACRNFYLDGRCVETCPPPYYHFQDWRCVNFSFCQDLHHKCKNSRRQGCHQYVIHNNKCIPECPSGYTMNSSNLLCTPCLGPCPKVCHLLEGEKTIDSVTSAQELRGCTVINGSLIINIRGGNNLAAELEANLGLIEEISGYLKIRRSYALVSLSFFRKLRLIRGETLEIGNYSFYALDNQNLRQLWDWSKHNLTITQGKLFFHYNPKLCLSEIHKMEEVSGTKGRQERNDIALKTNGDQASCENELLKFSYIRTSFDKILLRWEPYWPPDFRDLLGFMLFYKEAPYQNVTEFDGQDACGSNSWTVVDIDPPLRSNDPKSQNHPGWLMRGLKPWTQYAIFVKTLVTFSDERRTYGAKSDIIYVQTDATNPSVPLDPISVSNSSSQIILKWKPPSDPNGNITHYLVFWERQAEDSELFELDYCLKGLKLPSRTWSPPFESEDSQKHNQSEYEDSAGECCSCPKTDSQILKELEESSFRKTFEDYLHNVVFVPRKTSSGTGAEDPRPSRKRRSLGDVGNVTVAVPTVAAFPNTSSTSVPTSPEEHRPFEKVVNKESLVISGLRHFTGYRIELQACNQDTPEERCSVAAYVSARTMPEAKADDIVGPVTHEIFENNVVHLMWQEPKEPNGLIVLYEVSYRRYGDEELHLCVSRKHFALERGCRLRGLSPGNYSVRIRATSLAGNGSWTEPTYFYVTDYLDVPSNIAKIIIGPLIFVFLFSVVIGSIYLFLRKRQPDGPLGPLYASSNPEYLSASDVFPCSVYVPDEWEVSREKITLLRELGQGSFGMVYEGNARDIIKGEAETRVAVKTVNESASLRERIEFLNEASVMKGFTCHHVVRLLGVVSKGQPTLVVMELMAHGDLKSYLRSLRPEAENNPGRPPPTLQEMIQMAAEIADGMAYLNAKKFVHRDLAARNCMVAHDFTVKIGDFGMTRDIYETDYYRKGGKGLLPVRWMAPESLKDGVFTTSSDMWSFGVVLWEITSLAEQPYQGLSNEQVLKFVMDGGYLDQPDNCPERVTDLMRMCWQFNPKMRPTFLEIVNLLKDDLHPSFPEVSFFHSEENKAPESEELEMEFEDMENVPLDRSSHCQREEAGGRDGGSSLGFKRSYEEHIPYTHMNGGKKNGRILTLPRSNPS
Sequence of EPHA2 (P29317 24-976): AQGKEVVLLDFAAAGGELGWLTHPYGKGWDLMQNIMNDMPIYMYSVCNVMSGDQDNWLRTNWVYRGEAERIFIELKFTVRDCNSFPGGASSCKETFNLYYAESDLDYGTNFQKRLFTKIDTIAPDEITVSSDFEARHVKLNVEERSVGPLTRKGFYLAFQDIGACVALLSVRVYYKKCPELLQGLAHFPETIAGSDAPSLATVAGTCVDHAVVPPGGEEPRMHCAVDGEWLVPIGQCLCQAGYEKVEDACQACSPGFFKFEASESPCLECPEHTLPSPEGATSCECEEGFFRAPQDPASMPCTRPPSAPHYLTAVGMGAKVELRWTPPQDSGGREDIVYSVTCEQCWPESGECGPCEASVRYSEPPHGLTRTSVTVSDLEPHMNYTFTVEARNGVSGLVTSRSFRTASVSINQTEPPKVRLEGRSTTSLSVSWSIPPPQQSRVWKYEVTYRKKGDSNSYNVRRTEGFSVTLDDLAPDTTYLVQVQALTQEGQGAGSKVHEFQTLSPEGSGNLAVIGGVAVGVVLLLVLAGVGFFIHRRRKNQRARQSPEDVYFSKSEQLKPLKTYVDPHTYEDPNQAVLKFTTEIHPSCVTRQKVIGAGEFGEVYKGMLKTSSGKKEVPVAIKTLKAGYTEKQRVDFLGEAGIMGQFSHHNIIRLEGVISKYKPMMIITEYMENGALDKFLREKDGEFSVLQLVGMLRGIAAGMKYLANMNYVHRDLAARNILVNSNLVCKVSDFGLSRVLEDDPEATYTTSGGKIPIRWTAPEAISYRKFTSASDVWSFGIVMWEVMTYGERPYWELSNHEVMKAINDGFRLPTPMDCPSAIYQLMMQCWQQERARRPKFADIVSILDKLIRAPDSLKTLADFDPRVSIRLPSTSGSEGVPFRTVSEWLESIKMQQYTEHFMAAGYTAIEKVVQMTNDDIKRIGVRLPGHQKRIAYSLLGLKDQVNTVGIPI
Sequence of FGR (P09769 whole entry): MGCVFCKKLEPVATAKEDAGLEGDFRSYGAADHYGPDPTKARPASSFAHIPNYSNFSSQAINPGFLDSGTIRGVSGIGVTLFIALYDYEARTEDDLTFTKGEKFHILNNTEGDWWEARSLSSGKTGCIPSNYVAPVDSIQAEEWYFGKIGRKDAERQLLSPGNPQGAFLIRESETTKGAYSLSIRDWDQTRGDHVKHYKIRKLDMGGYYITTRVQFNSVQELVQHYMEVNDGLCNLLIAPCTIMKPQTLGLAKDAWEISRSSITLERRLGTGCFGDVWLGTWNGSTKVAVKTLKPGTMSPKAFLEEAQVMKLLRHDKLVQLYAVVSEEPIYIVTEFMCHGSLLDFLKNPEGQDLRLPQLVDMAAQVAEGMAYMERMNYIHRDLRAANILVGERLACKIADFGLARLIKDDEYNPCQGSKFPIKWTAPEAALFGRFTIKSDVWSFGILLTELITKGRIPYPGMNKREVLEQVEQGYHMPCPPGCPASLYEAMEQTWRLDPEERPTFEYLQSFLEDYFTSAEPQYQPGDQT

`COc1cc(-c2cncc(-c3ccc(N4CCN(C)CC4)cc3)c2C)cc(F)c1C(N)=O` [Compound 26a, 2-Fluoro-6-methoxy-4-(4-methyl-5-(4-(4-methylpiperazin-1-yl)phenyl)pyridin-3-yl)benzamide]: the remaining activity at 1 µM at EPHA2 worked out at 103%; at FGR it was 83.1%; at IR it was 102%; on LKB1 it was 80.7%; on PKCepsilon, 99.8%; at RIPK5, 83.1%.
With `COc1cc(-c2cncc(-c3ccc(N4C[C@@H](C)N(C)[C@@H](C)C4)cc3)c2C)cc(F)c1C(N)=O` [Compound 26c, 2-Fluoro-6-methoxy-4-(4-methyl-5-(4-((3R,5S)-3,4,5-trimethylpiperazin-1-yl)phenyl)pyridin-3-yl)benzamide], the remaining activity at 1 µM is 108% at EPHA2; 89.4% on FGR; 100% at IR; 96.1% on LKB1; 106% at PKCepsilon; 86.8% at RIPK5.
